Laboratory results from patent publication US10464926B2, “Heterobicyclic compounds and their use for the treatment of tuberculosis” (OTSUKA PHARMACEUTICAL CO., LTD., priority 2014, dated 2019).

Key:
[1] = test system: Mycobacterium tuberculosis (M. tuberculosis Kurono); test: Antibacterial test (agar dilution method), M. tuberculosis Kurono; type: cell-based; conditions: 7H11 agar medium, about 10^6 CFU/mL, 37° C. for 14 days; for MIC: Mycobacterium tuberculosis, 336 h, read-out: Minimum inhibitory concentration (MIC) kurono

SMILES	MIC [1]	melting point	Minimum inhibitory concentration (MIC) kurono [1]
O=C1CCc2c(OCC3(O)CCN(c4ccc(Cl)cc4F)CC3)ccc(F)c2N1 [Example 52, 5-{[1-(4-Chloro-2-fluorophenyl)-4-hydroxypiperidin-4-yl]methoxy}-8-fluoro-3,4-dihydroquinolin-2(1H)-one]	< 0.39 µg/mL	190.6 to 190.7 °C	
COCCOc1cc(N2CCC(O)(COc3ccc(Cl)c4c3CCC(=O)N4)CC2)c(F)cc1Cl [Example 175, 8-Chloro-5-({1-[4-chloro-2-fluoro-5-(2-methoxyethoxy)phenyl]-4-hydroxypiperidin-4-yl}methoxy)-3,4-dihydroquinolin-2(1H)-one]	< 0.39 µg/mL	143.5 to 145.1 °C	
O=C1CCc2c(OCC3(O)CCN(c4ccc(OCc5ccc(OC(F)(F)F)cc5)cc4F)CC3)ccc(F)c2N1 [Example 152, 8-Fluoro-5-{[1-(2-fluoro-4-{[4-(trifluoromethoxy)benzyl]oxy}phenyl)-4-hydroxypiperidin-4-yl]methoxy}-3,4-dihydroquinolin-2(1H)-one]	< 0.39 µg/mL	199.9 to 200.5 °C	
O=C1CCc2c(OC[C@@]3(O)CCN(c4c(F)cc(Cl)cc4F)C[C@@H]3F)ccc(F)c2N1 [Example 449, 5-{[(3S,4S)-1-(4-Chloro-2,6-difluorophenyl)-3-fluoro-4-hydroxypiperidin-4-yl]methoxy}-8-fluoro-3,4-dihydroquinolin-2(1H)-one]	< 0.39 µg/mL	209 to 210 °C	
O=C1CCc2c(cccc2OC[C@]2(O)CCN(c3ccc(Br)cc3F)C[C@H]2O)N1 [Example 347, 5-{[(3R,4R)-1-(4-Bromo-2-fluorophenyl)-3,4-dihydroxypiperidin-4-yl]methoxy}-3,4-dihydroquinolin-2(1H)-one]	< 0.39 µg/mL	226 to 227 °C	
O=C1CCc2c(OCC3(O)CCN(c4ncc(Cl)cc4Cl)CC3)ccc(Cl)c2N1 [Example 139, 8-Chloro-5-{[1-(3,5-dichloropyridin-2-yl)-4-hydroxypiperidin-4-yl]methoxy}-3,4-dihydroquinolin-2(1H)-one]	< 0.39 µg/mL	218 °C	
O=C1CCc2c(OCC3CCN(c4ncc(Cl)cc4Cl)CC3)ccc(F)c2N1 [Example 399, 5-{[1-(3,5-Dichloropyridin-2-yl)piperidin-4-yl]methoxy}-8-fluoro-3,4-dihydroquinolin-2(1H)-one]	< 0.39 µg/mL	194 to 195 °C	
O=c1ccc2c(OCC3(O)CCN(c4ccc(Cl)cc4F)CC3)cccc2[nH]1 [Example 138, 5-{[1-(4-Chloro-2-fluorophenyl)-4-hydroxypiperidin-4-yl]methoxy}quinolin-2(1H)-one]	< 0.39 µg/mL	275.7 to 277 °C	
O=C1CCc2c(OC[C@]3(O)CCN(c4c(F)cc(Cl)cc4F)C[C@H]3F)ccc(F)c2N1 [Example 448, 5-{[(3R,4R)-1-(4-Chloro-2,6-difluorophenyl)-3-fluoro-4-hydroxypiperidin-4-yl]methoxy}-8-fluoro-3,4-dihydroquinolin-2(1H)-one]	< 0.39 µg/mL	207 to 209 °C	
O=C1CCc2c(OC[C@]3(O)CCN(c4c(F)cc(Cl)cc4F)C[C@@H]3F)ccc(F)c2N1 [Example 447, 5-{[(3S,4R)-1-(4-Chloro-2,6-difluorophenyl)-3-fluoro-4-hydroxypiperidin-4-yl]methoxy}-8-fluoro-3,4-dihydroquinolin-2(1H)-one]	< 0.39 µg/mL	224 to 225 °C	
O=C1CCc2c(CCC3(O)CCN(c4c(F)cc(Cl)cc4F)CC3)ccc(F)c2N1 [Example 463, 5-{2-[1-(4-Chloro-2,6-difluorophenyl)-4-hydroxypiperidin-4-yl]ethyl}-8-fluoro-3,4-dihydroquinolin-2(1H)-one]	< 0.39 µg/mL		
O=c1ccc2c(OC[C@]3(O)CCN(c4ccc(Br)cc4F)C[C@H]3O)ccc(F)c2[nH]1 (relative stereo) [Example 369, 5-{[(3R*,4R*)-1-(4-Bromo-2-fluorophenyl)-3,4-dihydroxypiperidin-4-yl]methoxy}-8-fluoroquinolin-2(1H)-one]	< 0.39 µg/mL		
O=C1CCc2c(OC[C@]3(O)CCN(c4c(F)cc(Cl)cc4F)C[C@H]3O)ccc(F)c2N1 [Example 260, 5-{[(3R,4R)-1-(4-Chloro-2,6-difluorophenyl)-3,4-dihydroxypiperidin-4-yl]methoxy}-8-fluoro-3,4-dihydroquinolin-2(1H)-one]	< 0.39 µg/mL		
O=C1CCc2c(SCC3(O)CCN(c4ccc(Cl)cc4F)CC3)ccc(F)c2N1 [Example 460, 5-({[1-(4-Chloro-2-fluorophenyl)-4-hydroxypiperidin-4-yl]methyl}sulfanyl)-8-fluoro-3,4-dihydroquinolin-2(1H)-one]	< 0.39 µg/mL	171 to 172 °C	
O=C1CCc2c(OC[C@@]3(O)CCN(c4c(F)cc(Cl)cc4F)C[C@H]3F)ccc(F)c2N1 [Example 446, 5-{[(3R,4S)-1-(4-Chloro-2,6-difluorophenyl)-3-fluoro-4-hydroxypiperidin-4-yl]methoxy}-8-fluoro-3,4-dihydroquinolin-2(1H)-one]	< 0.39 µg/mL	224 to 225 °C	
NC1(COc2ccc(Cl)c3c2CCC(=O)N3)CCN(c2ccc(Cl)cc2F)CC1 [Example 14, 5-{[4-Amino-1-(4-chloro-2-fluorophenyl)piperidin-4-yl]methoxy}-8-chloro-3,4-dihydroquinolin-2(1H)-one]	< 0.39 µg/mL		
NC1(COc2ccc(F)c3c2CCC(=O)N3)CCN(c2ncc(Cl)cc2Cl)CC1 [Example 1, 5-{[4-Amino-1-(3,5-dichloropyridin-2-yl)piperidin-4-yl]methoxy}-8-fluoro-3,4-dihydroquinolin-2(1H)-one]	< 0.39 µg/mL		
O=C1CCc2c(OC[C@]3(O)CC[C@@H](c4ccc(Cl)cc4F)C[C@H]3O)ccc(F)c2N1 (relative stereo) [Example 471, 5-{[(1R*,2R*,4R*)-4-(4-Chloro-2-fluorophenyl)-1,2-dihydroxycyclohexyl]methoxy}-8-fluoro-3,4-dihydroquinolin-2(1H)-one]	< 0.39 µg/mL		
COC1(c2ccc(Cl)cc2F)CCC(O)(COc2ccc(F)c3c2CCC(=O)N3)CC1 (stereo not drawn) [Example 477, 5-{[trans-4-(4-Chloro-2-fluorophenyl)-1-hydroxy-4-methoxycyclohexyl]methoxy}-8-fluoro-3,4-dihydroquinolin-2(1H)-one]			<0.39 µg/mL
O=C1CCc2c(NCC3(O)CCN(c4ncc(Cl)cc4Cl)CC3)ccc(F)c2N1 [Example 372, 5-({[1-(3,5-Dichloropyridin-2-yl)-4-hydroxypiperidin-4-yl]methyl}amino)-8-fluoro-3,4-dihydroquinolin-2(1H)-one]	< 0.39 µg/mL		
O=C1CCc2c(OCC3(O)CCC(c4ccc(Cl)cc4F)CC3)ccc(F)c2N1 (stereo not drawn) [Example 469, 5-{[cis-4-(4-Chloro-2-fluorophenyl)-1-hydroxycyclohexyl]methoxy}-8-fluoro-3,4-dihydroquinolin-2(1H)-one]			<0.39 µg/mL
Cc1c(F)cc(OCC2(O)CCN(c3cc(F)c(Cl)cc3Cl)CC2)c2c1NC(=O)CC2 [Example 206, 5-{[1-(2,4-Dichloro-5-fluorophenyl)-4-hydroxypiperidin-4-yl]methoxy}-7-fluoro-8-methyl-3,4-dihydroquinolin-2(1H)-one]	< 0.39 µg/mL		
O=C1CCc2c(OCC3(F)CCN(c4ncc(Cl)cc4Cl)CC3)ccc(F)c2N1 [Example 404, 5-{[1-(3,5-Dichloropyridin-2-yl)-4-fluoropiperidin-4-yl]methoxy}-8-fluoro-3,4-dihydroquinolin-2(1H)-one]	< 0.39 µg/mL		
